Experimental data taken from PubChem BioAssay AID330 (DTP/NCI, 2004).
“And” between values parts separate entries of the source, which are not always exact repeats. Equal entries are not always repeated. Inconclusive results and toxic doses are left out.

Test system: P388 leukemia ip, CD2F1 mice, survival T/C
Assay: NCI In Vivo Anticancer Drug Screen. Data for tumor model P388 Leukemia (intraperitoneal) in CD2F1 (CDF1) mice
Details: endpoint: median survival time, higher = longer survival
In short: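 Mice carrying the transplanted tumor received test compound or vehicle. Survival was recorded in each group, and the value is the treated-group measurement divided by that of the vehicle-treated control group.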

[1] = dose: 50.0 mg/kg/injection, schedule: Q01DX005 (ip), vehicle: saline with Tween-80
[2] = dose: 100.0 mg/kg/injection, schedule: Q01DX005 (ip), vehicle: saline with Tween-80
[3] = dose: 200.0 mg/kg/injection, schedule: Q01DX005 (ip), vehicle: saline with Tween-80
[4] = dose: 50.0 mg/kg/injection, schedule: Q01DX005 (ip), vehicle: Klucel (hydroxypropylcellulose) (HPC)
[5] = dose: 100.0 mg/kg/injection, schedule: Q01DX005 (ip), vehicle: Klucel (hydroxypropylcellulose) (HPC)
[6] = dose: 60.0 mg/kg/injection, schedule: Q01DX005 (ip), vehicle: saline with Tween-80
[7] = dose: 120.0 mg/kg/injection, schedule: Q01DX005 (ip), vehicle: saline with Tween-80
[8] = dose: 240.0 mg/kg/injection, schedule: Q01DX005 (ip), vehicle: saline with Tween-80
[9] = dose: 60.0 mg/kg/injection, schedule: Q01DX005 (ip), vehicle: Klucel (hydroxypropylcellulose) (HPC)
[10] = dose: 120.0 mg/kg/injection, schedule: Q01DX005 (ip), vehicle: Klucel (hydroxypropylcellulose) (HPC)
[11] = dose: 240.0 mg/kg/injection, schedule: Q01DX005 (ip), vehicle: Klucel (hydroxypropylcellulose) (HPC)
[12] = dose: 25.0 mg/kg/injection, schedule: Q01DX009 (ip), vehicle: Klucel (hydroxypropylcellulose) (HPC)
[13] = dose: 50.0 mg/kg/injection, schedule: Q01DX009 (ip), vehicle: Klucel (hydroxypropylcellulose) (HPC)
[14] = dose: 100.0 mg/kg/injection, schedule: Q01DX009 (ip), vehicle: Klucel (hydroxypropylcellulose) (HPC)
[15] = dose: 200.0 mg/kg/injection, schedule: Q01DX009 (ip), vehicle: Klucel (hydroxypropylcellulose) (HPC)

For N#Cc1ccc[n+](Cc2ccccc2)c1, the T/C [1] was 100 % of control, the T/C [2] was 103 % of control and the T/C [3] was 100 % of control.

With CC(CCc1ccccc1)C(=O)Nc1ccccc1 (stereo not drawn) the T/C (dose: 100.0 mg/kg/injection, schedule: Q04DX002 (ip), vehicle: saline with Tween-80) was 99 % of control, the T/C (dose: 200.0 mg/kg/injection, schedule: Q04DX002 (ip), vehicle: saline with Tween-80) was 96 % of control and the T/C (dose: 400.0 mg/kg/injection, schedule: Q04DX002 (ip), vehicle: saline with Tween-80) was 95 % of control.

For OCc1ccc(OCc2ccccc2)c(OCc2ccccc2)c1, the T/C (dose: 50.0 mg/kg/injection, schedule: Q04DX003 (ip), vehicle: saline) was 98 % of control, the T/C (dose: 100.0 mg/kg/injection, schedule: Q04DX003 (ip), vehicle: saline) was 98 % of control and the T/C (dose: 200.0 mg/kg/injection, schedule: Q04DX003 (ip), vehicle: saline) was 104 % of control. For the same compound, the T/C (dose: 400.0 mg/kg/injection, schedule: Q04DX003 (ip), vehicle: saline) was 98 % of control.

CSc1nc(C)c(Br)c(N2CC2)n1 was tested, and the T/C (dose: 3.12 mg/kg/injection, schedule: Q01DX005 (ip), vehicle: Klucel (hydroxypropylcellulose) (HPC)) was 89 % of control, the T/C (dose: 6.25 mg/kg/injection, schedule: Q01DX005 (ip), vehicle: Klucel (hydroxypropylcellulose) (HPC)) was 110 % of control and 94 % of control and the T/C (dose: 12.5 mg/kg/injection, schedule: Q01DX005 (ip), vehicle: Klucel (hydroxypropylcellulose) (HPC)) was 99 % of control and 110 % of control. The T/C (dose: 25.0 mg/kg/injection, schedule: Q01DX005 (ip), vehicle: Klucel (hydroxypropylcellulose) (HPC)) was 120 % of control and 89 % of control and 97 % of control, the T/C [4] was 101 % of control and 102 % of control and the T/C [5] was 105 % of control.

For O=c1oc2c(cc1Cl)CCc1ccccc1-2, the T/C [1] was 104 % of control, the T/C [2] was 102 % of control and the T/C [3] was 97 % of control.

In the case of CCCc1cc(=O)[nH]c(SCC(=O)O)n1, the T/C [6] is reported as 100 % of control, the T/C [7] is reported as 101 % of control and the T/C [8] is reported as 99 % of control.

In the case of COc1ccc2cc3n(c(=Nc4ccccc4)c2c1OC)CCc1cc2c(cc1-3)OCO2, the T/C (dose: 0.63 mg/kg/injection, schedule: Q01DX009 (ip), vehicle: water) is reported as 97 % of control, the T/C (dose: 1.25 mg/kg/injection, schedule: Q01DX009 (ip), vehicle: water) is reported as 93 % of control and the T/C (dose: 2.5 mg/kg/injection, schedule: Q01DX009 (ip), vehicle: water) is reported as 101 % of control. The T/C (dose: 5.0 mg/kg/injection, schedule: Q01DX009 (ip), vehicle: water) was 124 % of control, the T/C (dose: 10.0 mg/kg/injection, schedule: Q01DX009 (ip), vehicle: water) was 99 % of control and the T/C (dose: 20.0 mg/kg/injection, schedule: Q01DX009 (ip), vehicle: water) was 101 % of control.

For COc1ccc2c(c1O)C13CC=NC(C2)C1C(C)(C)C(C)(C)C(=O)C3 (stereo not drawn), the T/C (dose: 12.5 mg/kg/injection, schedule: Q01DX005 (ip), vehicle: saline with Tween-80) was 100 % of control, the T/C (dose: 25.0 mg/kg/injection, schedule: Q01DX005 (ip), vehicle: saline with Tween-80) was 101 % of control and the T/C [1] was 100 % of control and 97 % of control.

In the case of CCCCN(CCNc1cc(OC)cc2cccnc12)C1CCCC1, the T/C (dose: 50.0 mg/kg/injection, schedule: Q01DX005 (ip), vehicle: saline) is reported as 104 % of control and the T/C (dose: 100.0 mg/kg/injection, schedule: Q01DX005 (ip), vehicle: saline) is reported as 88 % of control.

For CCCCN(CCCC)C(=N)c1cc(OC)ccc1OC, the T/C (dose: 3.12 mg/kg/injection, schedule: Q01DX005 (ip), vehicle: saline) was 101 % of control and the T/C (dose: 6.25 mg/kg/injection, schedule: Q01DX005 (ip), vehicle: saline) was 100 % of control.

O=c1c2cncnc2sc2nc3ccccc3n12 was tested, and the T/C [6] was 95 % of control, the T/C [7] was 94 % of control and the T/C [8] was 88 % of control.

With C/C(CC(=O)c1ccccc1)=C1\C(=O)NN(c2ccccc2)C1=O the T/C [6] was 101 % of control, the T/C [7] was 101 % of control and the T/C [8] was 93 % of control.

With c1cc2ccc3ccc[n+]4c3c2[n+](c1)CC4 the T/C (dose: 50.0 mg/kg/injection, schedule: Q01DX009 (ip), vehicle: saline) was 103 % of control.

With CCCC(C(CC)CNC(=O)Nc1cccc2ccccc12)N(C)C(=O)Nc1cccc2ccccc12 (stereo not drawn) the T/C (dose: 50.0 mg/kg/injection, schedule: Q01DX009 (ip), vehicle: saline with Tween-80) was 93 % of control, the T/C (dose: 100.0 mg/kg/injection, schedule: Q01DX009 (ip), vehicle: saline with Tween-80) was 92 % of control and the T/C (dose: 200.0 mg/kg/injection, schedule: Q01DX009 (ip), vehicle: saline with Tween-80) was 94 % of control. For the same compound, the T/C (dose: 400.0 mg/kg/injection, schedule: Q01DX009 (ip), vehicle: saline with Tween-80) was 99 % of control.

c1ccc(/C(=N\Nc2ccccn2)c2ccccn2)cc1 was tested, and the T/C [1] was 112 % of control, the T/C [2] was 117 % of control and the T/C [3] was 108 % of control.

In the case of Cc1cc2c(c(O)cc(=O)n2C)c(=O)n1C, the T/C [9] is reported as 102 % of control, the T/C [10] is reported as 91 % of control and the T/C [11] is reported as 91 % of control.

For CC(C)(C)c1ccc(C(O)(C(F)(F)F)C(F)(F)F)cc1, the T/C (dose: 100.0 mg/kg/injection, schedule: Q04DX002 (ip), vehicle: Klucel (hydroxypropylcellulose) (HPC)) was 94 % of control, the T/C (dose: 200.0 mg/kg/injection, schedule: Q04DX002 (ip), vehicle: Klucel (hydroxypropylcellulose) (HPC)) was 94 % of control and the T/C (dose: 400.0 mg/kg/injection, schedule: Q04DX002 (ip), vehicle: Klucel (hydroxypropylcellulose) (HPC)) was 109 % of control.

With Nn1c(=O)[nH][nH]c1=O the T/C [12] was 93 % of control, the T/C [13] was 104 % of control and the T/C [14] was 96 % of control. The T/C [15] was 93 % of control.

With C=C1CC/C=C(\C)CCC2C1CC2(C)C (stereo not drawn) the T/C (dose: 12.5 mg/kg/injection, schedule: Q01DX009 (ip), vehicle: Klucel (hydroxypropylcellulose) (HPC)) was 100 % of control, the T/C [12] was 100 % of control and the T/C [13] was 102 % of control. The T/C [14] was 105 % of control and the T/C [15] was 113 % of control.

For COC(=O)CCC(=O)C(C#N)c1ccc(Cl)c(Cl)c1 (stereo not drawn), the T/C [6] was 101 % of control and the T/C [7] was 101 % of control.

For C=C(C)CNCCN, the T/C [1] was 112 % of control, the T/C [2] was 112 % of control and the T/C [3] was 112 % of control.

In the case of Nc1nc(SCC(=O)O)[nH]c(=O)c1NS(=O)(=O)c1ccc([N+](=O)[O-])cc1, the T/C [9] is reported as 96 % of control, the T/C [10] is reported as 98 % of control and the T/C [11] is reported as 102 % of control.

With Cn1c(=O)oc2cc(C(=O)CN3CCN(c4cccc(C(F)(F)F)c4)CC3)ccc21 the T/C [9] was 92 % of control and the T/C [10] was 93 % of control.

For C(=N\NC1=NCCN1)/c1c[nH]c2ccccc12, the T/C [1] was 101 % of control and the T/C [2] was 97 % of control.

For N#CCc1ccc(Cl)c(Cl)c1, the T/C (dose: 6.25 mg/kg/injection, schedule: Q01DX009 (ip), vehicle: saline with Tween-80) was 104 % of control, the T/C (dose: 12.5 mg/kg/injection, schedule: Q01DX009 (ip), vehicle: saline with Tween-80) was 100 % of control and the T/C (dose: 12.5 mg/kg/injection, schedule: Q04DX003 (ip), vehicle: saline with Tween-80) was 100 % of control. The T/C (dose: 25.0 mg/kg/injection, schedule: Q01DX009 (ip), vehicle: saline with Tween-80) was 100 % of control and the T/C (dose: 25.0 mg/kg/injection, schedule: Q04DX003 (ip), vehicle: saline with Tween-80) was 100 % of control.

In the case of COc1cccc2c1C(=O)c1c(O)c3c(c(O)c1C2=O)C[C@@](O)(CO)C[C@@H]3OC1CC(N)C(O)C(C)O1 (stereo partly drawn), the T/C (dose: 0.56 mg/kg/injection, schedule: Q04DX003 (ip), vehicle: water) is reported as 109 % of control, the T/C (dose: 0.78 mg/kg/injection, schedule: Q01DX009 (ip), vehicle: water) is reported as 167 % of control and the T/C (dose: 1.13 mg/kg/injection, schedule: Q04DX003 (ip), vehicle: water) is reported as 104 % of control. The T/C (dose: 1.56 mg/kg/injection, schedule: Q01DX009 (ip), vehicle: water) was 167 % of control and 183 % of control, the T/C (dose: 2.25 mg/kg/injection, schedule: Q04DX003 (ip), vehicle: water) was 109 % of control and 118 % of control and the T/C (dose: 4.5 mg/kg/injection, schedule: Q04DX003 (ip), vehicle: water) was 115 % of control and 123 % of control. For the same compound, the T/C (dose: 6.25 mg/kg/injection, schedule: Q01DX009 (ip), vehicle: water) was 88 % of control, the T/C (dose: 9.0 mg/kg/injection, schedule: Q04DX003 (ip), vehicle: water) was 121 % of control and the T/C (dose: 18.0 mg/kg/injection, schedule: Q04DX003 (ip), vehicle: water) was 119 % of control and 123 % of control. The T/C (dose: 36.0 mg/kg/injection, schedule: Q04DX003 (ip), vehicle: water) was 97 % of control.

In the case of CC(=O)OCC1OC(n2cnc3c(N)ncnc32)C2OC(C)(C)OC12 (stereo not drawn), the T/C [4] is reported as 101 % of control and the T/C [5] is reported as 97 % of control.
